Data published in US20260108527A1, “POLO LIKE KINASE 4 INHIBITORS” (ORIC Pharmaceuticals, Inc., priority 2022, published 2026).

Assays:
[1] = target: T1, human recombinant Aurora B (Homo sapiens, UniProt Q96GD4); experiment: Aurora B Kinase Biochemical Assay (ADP-Glo); details: selectivity ratio; Aurora B 10 nM, 114 μM ATP
T1 construct: purchased ThermoFisher PR9210B
Outline: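 Aurora B (10 nM) was pre-incubated with compound for 15 min, then reacted with 114 μM ATP and 4.7 μM MBP for 2 h at RT in 50 mM HEPES pH 7.5, 10 mM MgCl2, 1 mM DTT. ADP was read by ADP-Glo luminescence, and IC50 values came from four-parameter fits of 11-point, 3-fold titrations in duplicate.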

CHP134 = CHP134 CellTiter-Glo (CTG) Assay; assay type: cell-based; details: Homo sapiens, CHP-134, 120 h; viable cells by CellTiter-Glo after 5 days
Outline: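 CHP134 cells were seeded at 200 cells/well for 16 h, then treated in quadruplicate with nine-point 1:3 serial dilutions at 37 °C, 5% CO2. Viable cells were read by CellTiter-Glo luminescence after 5 days, and IC50 values were derived from the dose-response curves.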

T1 sequence (Q96GD4 whole entry): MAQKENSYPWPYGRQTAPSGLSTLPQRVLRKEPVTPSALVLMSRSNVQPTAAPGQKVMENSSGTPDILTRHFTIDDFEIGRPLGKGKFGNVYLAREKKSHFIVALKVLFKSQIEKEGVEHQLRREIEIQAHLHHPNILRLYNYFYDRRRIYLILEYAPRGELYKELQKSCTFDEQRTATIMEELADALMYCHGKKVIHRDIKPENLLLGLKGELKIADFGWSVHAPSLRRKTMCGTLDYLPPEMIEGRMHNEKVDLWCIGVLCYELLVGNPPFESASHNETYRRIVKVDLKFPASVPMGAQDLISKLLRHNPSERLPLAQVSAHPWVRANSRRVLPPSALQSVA

SMILES: COc1ccc2c(c1)[C@]1(C[C@H]1c1ccc3c(Nc4cc(-c5nccs5)ccc4OC)n[nH]c3c1)C(=O)N2 [Example 14, (1R,2S)-5′-methoxy-2-{3-[2-methoxy-5-(1,3-thiazol-2-yl)anilino]-1H-indazol-6-yl}spiro[cyclopropane-1,3′-indol]-2′(1′H)-one]
- [Aurora B IC50 (nM)]/[PLK4 IC50 (nM)] [1]: 897.1830
- IC50 (CHP134): 88.7 nM
